Measurements taken from ChEMBL document CHEMBL6078646, “Target Ligand Separation and Identification of Isoforsythiaside as a Histone Lysine-Specific Demethylase 1 Covalent Inhibitor Against Breast Cancer Metastasis” (J Med Chem, 2024).
Activity calls are given as the source filed them. The calls are words filed in the database; no cut-off is given here.

Key:
[1] = Toxicity in female Balb/c mouse assessed as effect on monocytes level at 50 mg/kg, ip administered every other day for 7 times; assay type: organism-based; conditions: in vivo
[2] = Toxicity in female Balb/c mouse assessed as effect on granulocyte level at 50 mg/kg, ip administered every other day for 7 times; assay type: organism-based; conditions: in vivo
[3] = Toxicity in female Balb/c mouse assessed as effect on creatine kinase level at 50 mg/kg, ip administered every other day for 7 times; assay type: organism-based; conditions: in vivo
MDA-MB-231 [4] = assay: Inhibition of cell invasion in human MDA-MB-231 cells assessed as reduction in number of invasive cells at 4 to 32 uM incubated for 24 hrs by phase contrast microscopy Transwell assay; assay type: functional, cell-based; conditions: dose 4-32 µM
MDA-MB-231 [5] = assay: Antimetastatic activity against human MDA-MB-231-Luc cells xenografted in female Balb/c nude mouse assessed as smaller metastatic nodules in lung at 12 to 50 mg/kg, ip administered every 3 days and measured after 30 days by H and E staining based analysis; assay type: functional, organism-based; conditions: dose 12-50 mg/kg, time 30.0 day
MDA-MB-231 [6] = assay: Effect on H3K4me2 protein expression in LSD1 knockout human MDA-MB-231 cells at 16 uM by Western blot analysis; assay type: functional, cell-based
Homo sapiens = species: Homo sapiens; assay: Binding affinity to recombinant LSD1 Ser817A mutant (unknown origin) assessed as thermal stability at 50 uM preincubated for 30 mins followed by incubation under 37 to 52 degreeC for 5 mins by CETSA; conditions: time 35.0 min
[7] = target: T1, Lysine-specific histone demethylase 1A (Homo sapiens, UniProt O60341); assay: Inhibition of LSD1 (unknown origin) activity measured after 80-fold dilution by dilution assay
[8] = target: T1, Lysine-specific histone demethylase 1A; assay: Non-competitive inhibition of LSD1 (unknown origin) using H3K4me2 as substrate by Lineweaver-Burk plot analysis

## C[C@@H]1O[C@H](OC[C@H]2O[C@@H](OCCc3ccc(O)c(O)c3)[C@H](O)[C@@H](OC(=O)/C=C/c3ccc(O)c(O)c3)[C@@H]2O)[C@H](O)[C@H](O)[C@H]1O
[1]
  Activity: Non-toxic
[2]
  Activity: Non-toxic
[3]
  Activity: Non-toxic
MDA-MB-231 [4]
  inhibition: Active
MDA-MB-231 [5]
  Activity: Active
MDA-MB-231 [6]
  Activity: inactive
Homo sapiens
  Activity: inactive
[7]
  inhibition: Active; Compound Exerts Inhibition In An Irreversible Manner
[8]
  inhibition: Active
